From US20220133722A1, “PHARMACEUTICAL COMPOSITIONS” (QUE ONCOLOGY PTY LTD, priority 2019, published 2022)
Several values for one entry are separate records, joined by “and”; a condition that tells them apart may be missing. Equal values may be shown once. Read-outs that look alike come from different tables or passages of the source.

Test: Part 1 PK study: single oral 200 mg dose, fed (high-fat meal) versus fasted
Type: in vivo, human
Conditions: for Vd/F: read-out: Vz/F
Description: Part 1 involved analysing the PK parameters obtained following single oral administration of 200 mg tablets of a compound of formula (Ia) in free base form to 12 healthy female subjects following either fed (high-fat meal) or fasted conditions.
For Part 1 • Cmax maximum plasma concentration (observed) • Tmax time to reach the maximum plasma concentration (observed) • Clast last observed quantifiable concentration in plasma • Tlast time of last observed quantifiable concentration in plasma • AUC0-last area under the plasma concentration-time curve from time 0 to the time of the last quantifiable concentration • AUCinf area under the plasma concentration-time curve from time 0 to infinite time, calculated as the sum of AUClast and Clast/kel • % AUCexp percent of AUC extrapolated between AUC0-last and AUCinf • kel apparent terminal elimination rate constant • t1/2 elimination half-life associated with the terminal slope (kel) of the semilogarithmic drug concentration-time curve, calculated as 0.693/kel • CL/F apparent total body clearance of a drug from the plasma calculated by: CL/F=Dose/AUCinf • Vz/F apparent volume of distribution at steady state calculated by: V/F=[…]
An initial dose was administered on Day 1 followed by collection of samples for PK analysis for 96 hours. PK blood samples were taken pre-dose and 0.25, 0.5, 1.0, 1.5, 2, 3, 4, 8, 10, 12, 16, 24, 36, 48, 60, 72 and 96 hours post-dose, and urine samples were taken at 0-4, 4-8, 8-12, 12-24 and 24-48 hours. Ten days after the initial dose of study drug (Day 11), a second dose of drug was administered followed by collection of PK samples. Subjects completed the End-of-Study Visit (EOS) on Day 18, 7 days after the last dose of study drug.
Subjects selected for participation checked into the clinical unit and were randomized (on the morning of Day 1) to food state for study treatment; one half received study drug in the fed state first followed by fasted state for the second dose while the other half received study drug in the fasted state first followed by fed state. Prior to dosing on Day 1, all subjects fasted for a minimum of 10 hours overnight. On the morning of Day 1, subjects dosed in the fed state received the study drug within 10 min of completing a high fat breakfast. […] Plasma and urine samples were collected as set out above for the PK analysis. Subjects remained in the clinic for study procedures and blood draws before checking out after completion of study procedures on the morning of Day 4 (i.e., 72 hours post-dose) returning for the final PK blood draw on Day 5 at 96 hr post-dose. After the first single dose of study drug, subjects completed a 10-day washout period, returning to the clinical unit for check-in on Day 10. Subjects fasted overnight, receiving the second dose of study drug in the fed or fasted state on the morning of Day 11. Subjects were discharged from the clinic after the collection of the final 72-hr PK sample returning the next day for the 96 hr blood draw.
For both Parts 1 and 2, samples were processed and analysed as follows. The method extracted Q-122 and the Internal Standard (IS, Q-122 ^13C4) from human plasma using protein precipitation extraction.
The analytes were separated by HPLC on a Phenomenex Synergi Polar-RP column, and the eluates monitored by an API4000 MS/MS detector in positive MRM mode. The extract was then assayed against a calibration curve. The data were acquired and processed by the data acquisition system Analyst® (Sciex) linked directly to the API4000 MS/MS detector and then processed in Watson LIMS™ (Thermo Scientific), where applicable. The method range is from 10.0 to 2500 ng/mL using 50 μL of matrix and has a run time of approximately 3.2 minutes per sample.
Plasma PK parameters for each dosing regimen and dose level were calculated from the concentrations of Q-122 and its major metabolites measured in pre-dose and post-dose plasma samples. […]

[1] = female, human, plasma, po, 200 mg, single oral 200 mg, fasted, mean
[2] = female, human, plasma, po, 200 mg, single oral 200 mg, fasted, median
[3] = female, human, plasma, po, 200 mg, single oral 200 mg, fed (high-fat meal), mean
[4] = female, human, plasma, po, 200 mg, single oral 200 mg, fed (high-fat meal), median
[5] = single dose 200 mg, fed versus fasted
[6] = single oral 200 mg, fasted, individual subjects
[7] = single oral 200 mg, fasted, max
[8] = single oral 200 mg, fasted, mean
[9] = single oral 200 mg, fasted, median
[10] = single oral 200 mg, fasted, min
[11] = single oral 200 mg, fed (high-fat meal), individual subjects
[12] = single oral 200 mg, fed (high-fat meal), max
[13] = single oral 200 mg, fed (high-fat meal), mean
[14] = single oral 200 mg, fed (high-fat meal), median
[15] = single oral 200 mg, fed (high-fat meal), min
[16] = single oral dose 200 mg, healthy subjects

c1cnc(NCc2ccc(CNc3ncccn3)cc2)nc1 [Q-122]
bioavailability with a fatty meal (200 mg, with fatty meal versus fasted): increase in bioavailability
Tmax (female, human, plasma, oral, 200 mg, single dose 200 mg, fasted, subject 101009 omitted, read-out: Tmax (range over subjects)): 0.5 to 2 h
Tmax (female, human, plasma, oral, 200 mg, single dose 200 mg, fasted, read-out: Tmax (range over subjects)): 0.5 to 8 h
Tmax (female, human, plasma, oral, 200 mg, single dose 200 mg, fed, read-out: Tmax (range over subjects)): 0.5 to 10 h
AUC(0-inf) [1]: 7380 ng·h/mL
AUC(0-t) [1]: 6400 ng·h/mL
half-life [1]: 21.4 h
Cmax (female, human, plasma, po, 200 mg, single oral 200 mg, fasted, mean, read-out: Cmax): 620 ng/mL
Tmax (female, human, plasma, po, 200 mg, single oral 200 mg, fasted, mean, read-out: Tmax): 1.75 h
Vd/F [1]: 874 L
AUC(0-inf) [2]: 7390 ng·h/mL
AUC(0-t) [2]: 6330 ng·h/mL
half-life [2]: 23 h
Cmax (female, human, plasma, po, 200 mg, single oral 200 mg, fasted, median, read-out: Cmax): 613 ng/mL
Tmax (female, human, plasma, po, 200 mg, single oral 200 mg, fasted, median, read-out: Tmax): 1.25 h
Vd/F [2]: 798 L
AUC(0-t) [3]: 10200 ng·h/mL
half-life [3]: 12.3 h
Cmax (female, human, plasma, po, 200 mg, single oral 200 mg, fed (high-fat meal), mean, read-out: Cmax): 987 ng/mL
Tmax (female, human, plasma, po, 200 mg, single oral 200 mg, fed (high-fat meal), mean, read-out: Tmax): 6.23 h
Vd/F [3]: 404 L
AUC(0-inf) [4]: 11800 ng·h/mL
AUC(0-t) [4]: 11300 ng·h/mL
half-life [4]: 8.98 h
Cmax (female, human, plasma, po, 200 mg, single oral 200 mg, fed (high-fat meal), median, read-out: Cmax): 929 ng/mL
Tmax (female, human, plasma, po, 200 mg, single oral 200 mg, fed (high-fat meal), median, read-out: Tmax): 8 h
Vd/F [4]: 233 L
increase in mean AUC after food [5]: 1.6 fold
increase in mean Cmax after food [5]: 1.6 fold
change of Cmax and AUC0-last following food (single dose 200 mg, fed versus fasted, per subject): approximately doubled in 6 out of 11 subjects
% AUCexp [6]: 4.3% and 10.3% and 9.1% (2×) and 2.7% and 13.4% and 12.6% and 11.3% and 30.9% and 5.9% and 3.1%
AUC0-last [6]: 5881.1 ng·h/mL and 9258.3 ng·h/mL and 7702.0 ng·h/mL and 8375.7 ng·h/mL and 4924.9 ng·h/mL and 5410.8 ng·h/mL and 6774.9 ng·h/mL and 3631.6 ng·h/mL and 5150.3 ng·h/mL and 9154.4 ng·h/mL and 6812.7 ng·h/mL and 3704.2 ng·h/mL
AUCinf [6]: 6144.8 ng·h/mL and 10317.1 ng·h/mL and 8470.5 ng·h/mL and 8608.7 ng·h/mL and 5415.4 ng·h/mL and 6250.2 ng·h/mL and 7756.0 ng·h/mL and 4092.4 ng·h/mL and 9726.1 ng·h/mL and 7031.1 ng·h/mL
Cl/F [6]: 32.55 L/h and 19.39 L/h and 23.61 L/h and 23.23 L/h and 36.93 L/h and 32.00 L/h and 25.79 L/h and 48.87 L/h and 20.56 L/h and 28.45 L/h
Clast [6]: 15.50 ng/mL and 26.40 ng/mL and 16.30 ng/mL (2×) and 11.70 ng/mL and 14.20 ng/mL and 22.40 ng/mL and 30.90 ng/mL and 17.70 ng/mL and 39.70 ng/mL and 11.40 ng/mL and 22.00 ng/mL
Cmax [6]: 611.00 ng/mL and 801.00 ng/mL and 676.00 ng/mL and 1010.00 ng/mL and 103.00 ng/mL and 516.00 ng/mL and 668.00 ng/mL and 403.00 ng/mL and 559.00 ng/mL and 1050.00 ng/mL and 615.00 ng/mL and 422.00 ng/mL
Tlast [6]: 48.00 h and 96.00 h (3×) and 60.00 h (5×) and 72.00 h (2×) and 24.00 h
Tmax [6]: 1.00 h and 1.50 h and 0.50 h
kel [6]: 0.059 1/h and 0.025 1/h and 0.021 1/h and 0.050 1/h and 0.029 1/h (2×) and 0.027 1/h and 0.031 1/h and 0.038 1/h and 0.052 1/h
t1/2 [6]: 11.79 h and 27.80 h and 32.68 h and 13.80 h and 23.94 h and 25.98 h and 22.01 h and 18.04 h and 24.31 h and 13.28 h
% AUCexp [7]: 30.9%
AUC0-last [7]: 9258.3 ng·h/mL
AUCinf [7]: 10317.1 ng·h/mL
Cl/F [7]: 48.87 L/h
Clast [7]: 39.70 ng/mL
Cmax [7]: 1050.00 ng/mL
Tlast [7]: 96.00 h
kel [7]: 0.059 h⁻¹
t1/2 [7]: 32.68 h
% AUCexp [8]: 10.23%
Cl/F [8]: 29.137 L/h
Clast [8]: 20.375 ng/mL
Tlast [8]: 67.000 h
kel [8]: 0.0361 h⁻¹
% AUCexp [9]: 9.07%
Cl/F [9]: 27.12 L/h
Clast [9]: 17.00 ng/mL
Tlast [9]: 60.00 h
kel [9]: 0.0302 h⁻¹
% AUCexp [10]: 2.7%
AUC0-last [10]: 3631.6 ng·h/mL
AUCinf [10]: 4092.4 ng·h/mL
Cl/F [10]: 19.39 L/h
Clast [10]: 11.40 ng/mL
Cmax [10]: 103.00 ng/mL
Tlast [10]: 24.00 h
Tmax [10]: 0.50 h
kel [10]: 0.021 h⁻¹
t1/2 [10]: 11.79 h
% AUCexp [11]: 0.8% and 4.7% and 7.5% and 2.0% and 1.3% and 5.9% and 1.6% (2×) and 1.7% and 0.9% and 1.5%
AUC0-last [11]: 11087.2 ng·h/mL and 12782.0 ng·h/mL and 4088.9 ng·h/mL and 8498.9 ng·h/mL and 12043.9 ng·h/mL and 7713.8 ng·h/mL and 11821.5 ng·h/mL and 12551.6 ng·h/mL and 14254.9 ng·h/mL and 6505.3 ng·h/mL
AUCinf [11]: 11171.4 ng·h/mL and 13417.1 ng·h/mL and 4422.3 ng·h/mL and 12197.9 ng·h/mL and 8201.3 ng·h/mL and 11516.0 ng·h/mL and 12030.1 ng·h/mL and 12760.3 ng·h/mL and 14389.6 ng·h/mL and 6606.2 ng·h/mL
Cl/F [11]: 17.90 L/h and 14.91 L/h and 45.22 L/h and 16.40 L/h and 24.39 L/h and 17.37 L/h and 16.62 L/h and 15.67 L/h and 13.90 L/h and 30.27 L/h
Clast [11]: 11.00 ng/mL and 14.70 ng/mL and 11.20 ng/mL and 34.20 ng/mL and 15.10 ng/mL and 16.70 ng/mL and 21.50 ng/mL and 15.40 ng/mL and 13.60 ng/mL and 10.90 ng/mL and 12.20 ng/mL
Cmax [11]: 1520.00 ng/mL and 1180.00 ng/mL and 267.00 ng/mL and 797.00 ng/mL and 603.00 ng/mL and 1400.00 ng/mL and 914.00 ng/mL and 1240.00 ng/mL and 1230.00 ng/mL and 779.00 ng/mL
Tlast [11]: 36.00 h (3×) and 96.00 h (2×) and 24.00 h and 48.00 h (4×) and 60.00 h
Tmax [11]: 0.50 h and 10.00 h
kel [11]: 0.131 1/h and 0.023 1/h and 0.034 1/h (2×) and 0.098 1/h and 0.114 1/h and 0.074 1/h and 0.065 1/h and 0.081 1/h and 0.121 1/h
t1/2 [11]: 5.30 h and 29.71 h and 20.63 h and 7.07 h and 20.23 h and 6.08 h and 9.39 h and 10.63 h and 8.57 h and 5.73 h
% AUCexp [12]: 7.5%
AUC0-last [12]: 14254.9 ng·h/mL
AUCinf [12]: 14389.6 ng·h/mL
Cl/F [12]: 45.22 L/h
Clast [12]: 34.20 ng/mL
Cmax [12]: 1520.00 ng/mL
Tlast [12]: 96.00 h
Tmax [12]: 10.00 h
kel [12]: 0.131 h⁻¹
t1/2 [12]: 29.71 h
% AUCexp [13]: 2.70%
Cl/F [13]: 21.266 L/h
Clast [13]: 16.045 ng/mL
Tlast [13]: 52.364 h
kel [13]: 0.0775 h⁻¹
% AUCexp [14]: 1.64%
Cl/F [14]: 17.00 L/h
Clast [14]: 14.70 ng/mL
Tlast [14]: 48.00 h
kel [14]: 0.0774 h⁻¹
% AUCexp [15]: 0.8%
AUC0-last [15]: 4088.9 ng·h/mL
AUCinf [15]: 4422.3 ng·h/mL
Cl/F [15]: 13.90 L/h
Clast [15]: 10.90 ng/mL
Cmax [15]: 267.00 ng/mL
Tlast [15]: 24.00 h
Tmax [15]: 0.50 h
kel [15]: 0.023 h⁻¹
t1/2 [15]: 5.30 h
increase of mean AUC0-inf by a high-fat meal compared to the fasted state [16]: ~45%
increase of mean Cmax by a high-fat meal compared to the fasted state [16]: about 60%
